From patent US10173974B1, “Natural product-based synthesis of novel anti-infective isothiocyanate- and isoselenocyanate-functionalized amphilectane diterpenes” (priority 2015, dated 2019)
Values after ≈ are worked out from the molar mass of the structure shown. Where two headings read alike, the source gives them in different places.

Legend:
[1] = test system: P. falciparum Dd2 (drug resistant); assay: SYBR Green parasite proliferation assay, P. falciparum Dd2 strain; format: cell-based, Plasmodium falciparum
[2] = test system: P. falciparum 3D7 (chloroquine-sensitive); assay: SYBR Green parasite proliferation assay, P. falciparum 3D7 strain; format: cell-based, Plasmodium falciparum
[3] = test system: Mtb H37Rv (ATCC 27 294); assay: Microplate Alamar blue assay (MABA), antitubercular activity; format: cell-based, Mycobacterium tuberculosis; details: for MABA MIC: Mtb H37Rv
[4] = test system: Vero cell line ATCC CRL-1586
[5] = in vitro; details: African green monkey
[6] = P. falciparum Dd2 (drug resistant), 72 h incubation, in vitro growth inhibition
[7] = P. falciparum 3D7 (chloroquine-sensitive), 72 h incubation, in vitro growth inhibition

Compound: CCN(CC)CCCC(C)Nc1ccnc2cc(Cl)ccc12 (centres unmarked) [CQ, chloroquine, reference compound]
- IC50 ([1]; Plasmodium falciparum, P. falciparum Dd2 (drug resistant), 72 h incubation, in vitro growth inhibition): 0.0519 µM
- IC50 ([2]; Plasmodium falciparum, P. falciparum 3D7 (chloroquine-sensitive), 72 h incubation, in vitro growth inhibition): 0.0109 µM

Compound: [C-]#[N+]C(C)(C)CC1CC(C)C2CCC(C)C3([N+]#[C-])CCC(=C)C1C23 (single isomer, unassigned; (-)) [Compound 1, (−)-8,15-diisocyano-11(20)-amphilectene, reference compound]
- IC50 [1, 6]: 0.0031 µM
- IC50 [2, 7]: 0.0012 µM
- MABA MIC [3]: 9.8 µM

Compound: C=C1CC[C@@]2(N=C=[Se])[C@H]3[C@H](CC[C@@H]2C)[C@@H](C)C[C@@H](CC(C)(C)N=C=[Se])[C@H]13 [Compound 5, 8,15-Diisoselenocyano-11(20)-amphilectene]
- IC50 [1, 6]: 0.0066 µM
- IC50 [2, 7]: 0.0025 µM
- MABA MIC [3]: 3.9 µM

Compound: 8-Isothiocyano-15-isoselenocyano-11(20)-amphilectene (3) and 8-Isoselenocyano-15-isothiocyano-11(20)-amphilectene (4) [Compound 3 and 4]
- CC50 [4]: 78.1 µM

Compound: C=C(C)C[C@@H]1C[C@H](C)[C@H]2CC[C@H](C)[C@@]3(N=C=[Se])CCC(=C)[C@@H]1[C@H]23 [Compound 6, 8-Isoselenocyanoamphilecta-11(20),15-diene]
- IC50 [1]: 0.149 µM
- IC50 [2]: 0.189 µM
- MABA MIC [3]: 2.1 µM

Compound: CO[C@H]1/C=C/O[C@@]2(C)Oc3c(C)c(O)c4c(O)c(c(/C=N/N5CCN(C)CC5)c(O)c4c3C2=O)NC(=O)/C(C)=C\C=C\[C@H](C)[C@H](O)[C@@H](C)[C@@H](O)[C@@H](C)[C@H](OC(C)=O)[C@@H]1C [RMP, rifampicin, reference compound]
- MIC ([3]; Mycobacterium tuberculosis, read-out: MABA MIC): 0.09 µM (≈ 0.0741 µg/mL)
- CC50 [5]: > 100 µM

Compound: C=C1CC[C@@]2(N=C=S)[C@H]3[C@H](CC[C@@H]2C)[C@@H](C)C[C@@H](CC(C)(C)N=C=S)[C@H]13 [Compound 2, 8,15-Diisothiocyano-11(20)-amphilectene]
- IC50 [1, 6]: 11.6 µM
- IC50 [2, 7]: 11.8 µM
- MABA MIC [3]: 99.1 µM
